Data set [1] addresses T1, Organic cation/carnitine transporter 2 (Homo sapiens, UniProt O76082).
T1 sequence (O76082 whole entry): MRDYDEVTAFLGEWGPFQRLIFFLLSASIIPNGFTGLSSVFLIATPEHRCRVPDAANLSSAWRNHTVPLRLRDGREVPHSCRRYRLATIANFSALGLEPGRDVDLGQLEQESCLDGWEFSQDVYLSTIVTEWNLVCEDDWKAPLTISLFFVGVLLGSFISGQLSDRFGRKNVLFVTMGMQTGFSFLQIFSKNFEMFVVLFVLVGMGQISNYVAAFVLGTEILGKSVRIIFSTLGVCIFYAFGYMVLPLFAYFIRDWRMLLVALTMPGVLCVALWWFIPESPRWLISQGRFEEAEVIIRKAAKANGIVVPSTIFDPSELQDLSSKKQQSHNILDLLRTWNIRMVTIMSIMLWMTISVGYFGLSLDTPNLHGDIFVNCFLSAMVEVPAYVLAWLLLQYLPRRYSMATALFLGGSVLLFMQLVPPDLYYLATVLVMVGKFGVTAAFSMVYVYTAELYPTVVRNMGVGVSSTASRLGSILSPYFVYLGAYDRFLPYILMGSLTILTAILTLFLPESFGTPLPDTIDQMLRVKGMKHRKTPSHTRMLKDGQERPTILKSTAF
Kind of data set: TP_TRANSPORTER: inhibition of Carnitine uptake (Carnitine: 0.02 uM, Cyclacillin: 2500 uM) in OCTN2-expressing HeLa cells. It counts as functional, cell-based.

Data set [2] addresses T1, Organic cation/carnitine transporter 2. Put plainly: TP_TRANSPORTER: inhibition of Carnitine uptake (Carnitine: 0.02 uM, PCG: 2500 uM) in OCTN2-expressing HeLa cells. The format is functional, cell-based.

On to `CC1(C)S[C@@H]2[C@H](NC(=O)C3(N)CCCCC3)C(=O)N2[C@H]1C(=O)O` [CYCLACILLIN], for which the Activity entry in data set [1] is “is not an inhibitor [-]”. Regarding `CC1(C)S[C@@H]2[C@H](NC(=O)Cc3ccccc3)C(=O)N2[C@H]1C(=O)O` [PENICILLIN G], the Activity result in data set [2] was “is not an inhibitor [-]”.

Values taken from ChEMBL document CHEMBL2074042, “beta-lactam antibiotics as substrates for OCTN2, an organic cation/carnitine transporter” (J Biol Chem, 2000).
